The source of these data is US9220795B2, “Indole derivatives” (priority 2011, dated 2015).

In one series the target is T1, Wistar rat heart PBR (Rattus norvegicus, UniProt P16257).
T1 construct: from tissue; host or cells: Wistar rat heart
The experiment in a line: In vitro potency assay: competition for binding to PBR against 0.3 nM [3H]PK-11195. To be noted: non-radioactive analogues; vs 0.3 nM [3H]PK-11195; 15 minutes at 25° C.; 6 concentrations. As for the experimental part: Affinity for PBR was screened using a method adapted from Le Fur et al (Life Sci. 1983; USA 33: 449-57). Non-radioactive analogues of in vivo imaging agents of the invention were tested along with a non-radioactive analogue of a previous tetracyclic indole imaging agent (from co-pending patent application PCT/EP2009/062827; synthesis described in Example 17 below):
Each test compound (dissolved in 50 mM Tris-HCl, pH 7.4, 10 mM MgCl2 containing 1% DMSO) competed for binding to Wistar rat heart PBR against 0.3 nM [^3H] PK-11195. The reaction was carried out in 50 mM Tris-HCl, pH 7.4 10 mM MgCl2 for 15 minutes at 25° C.

Series [1] is described as follows: In vivo biodistribution method. Also noted: species or system Adult male Wistar rats. To be noted: for Brain 2 min (% ID/g): 2 min after injection via lateral tail vein, 1-3 MBq, n=3; for % Activity in Brain = Parent @ 60 min: 60 min after injection; for OB 30 min (% ID/g): olfactory bulb, 30 min after injection; for OB: Str 30 min: ratio olfactory bulb to striatum at 30 min; for Str 2: 30 min: ratio striatum 2 min to 30 min. The protocol: Imaging agents of the invention were tested in an in vivo biodistribution model along with a previous tetracyclic imaging agent (from co-pending patent application PCT/EP2009/062827; synthesis described in Example 18 below).

As usually defined, the Ki is a measure of affinity in units of concentration, obtained from inhibition or displacement.

Take `CCN(CC)C(=O)C1Sc2ccccc2-c2c1c1cc(OC)ccc1n2CCF` (racemic) [tetracyclic indole, (+−)-11-(2-[^18F]fluoroethyl)-8-methoxy-6,11-dihydro-5-thia-11-aza-benzo[a]fluorene-6-carboxylic acid diethyl amide, reference compound]: the Ki on Wistar rat heart PBR is 0.369 nM.

For the compound `CCN(CC)C(=O)C1Sc2ccccc2-c2c1c1cc(OC)ccc1n2CC[18F]` (racemic) [tetracyclic indole, (+−)-11-(2-[^18F]fluoroethyl)-8-methoxy-6,11-dihydro-5-thia-11-aza-benzo[a]fluorene-6-carboxylic acid diethyl amide, reference compound], in series [1], the “Brain 2 min (% ID/g)” value came to 0.32 % ID/g, the “% Activity in Brain = Parent @ 60 min” value is on record as 96.00%, the “OB 30 min (% ID/g)” value is 0.31 % ID/g and the “OB: Str 30 min” value is given as 2.07. Moreover, in series [1], the “Str 2: 30 min” value was found to be 1.73.

In the case of `CCN(CC)C(=O)C1CCCc2c1c1c(OC)cccc1n2CCF` (stereo not drawn) [Imaging agent 5, 9-(2-[^18F]-Fluoro-ethyl)-5-methoxy-2,3,4,9-tetrahydro-1H-carbazole-4-carboxylic acid diethylamide], the inhibition constant (Ki) at Wistar rat heart PBR was found to be 2.35 nM.

On to `O=C(C1CCCc2c1c1ccccc1n2CCF)N1CCCCC1` (stereo not drawn) [Imaging agent 6, [9-(2-[^18F]-Fluoro-ethyl)-2,3,4,9-tetrahydro-1H-carbazol-4-yl]-piperidin-1-yl-methanone], for which, at Wistar rat heart PBR, the inhibition constant Ki stood at 18.3 nM.

`CN(Cc1ccccc1)C(=O)C1CCCc2c1c1ccccc1n2CCF` (stereo not drawn) [Imaging agent 7, 9-(2-[^18F]fluoro-ethyl)-2,3,4,9-tetrahydro-1H-carbazole-4-carboxylic acid benzyl-methyl-amide]: the Ki at Wistar rat heart PBR amounted to 1.25 nM.

For the compound `CN(Cc1ccccc1)C(=O)C1CCCc2c1c1ccccc1n2CC[18F]` (stereo not drawn) [Imaging agent 7, 9-(2-[^18F]fluoro-ethyl)-2,3,4,9-tetrahydro-1H-carbazole-4-carboxylic acid benzyl-methyl-amide], in series [1], the “Brain 2 min (% ID/g)” value was 0.55 % ID/g, the “% Activity in Brain = Parent @ 60 min” value was found to be 81.28%, the “OB 30 min (% ID/g)” value is 0.34 % ID/g and the “OB: Str 30 min” value is 3.40. In series [1], the “Str 2: 30 min” value stood at 4.70.

Turning to `CCN(CC)C(=O)C1CCCc2c1c1cc(F)ccc1n2CCF` (stereo not drawn) [Imaging agent 9, 6-Fluoro-9-(2-[^18F]fluoro-ethyl)-2,3,4,9-tetrahydro-1H-carbazole-4-carboxylic acid diethylamide], the inhibitory constant (Ki) at Wistar rat heart PBR was found to be 3.79 nM.

As to `CCN(CC)C(=O)C1CCCc2c1c1cc(F)ccc1n2CC[18F]` (stereo not drawn) [Imaging agent 9, 6-Fluoro-9-(2-[^18F]fluoro-ethyl)-2,3,4,9-tetrahydro-1H-carbazole-4-carboxylic acid diethylamide], in series [1], the “Brain 2 min (% ID/g)” value was 0.56 % ID/g, the “% Activity in Brain = Parent @ 60 min” value is listed as 84.30% and the “OB 30 min (% ID/g)” value worked out at 0.41 % ID/g.

Take `CCN(CC)C(=O)C1CCCc2c1c1c(F)cccc1n2CC[18F]` (stereo not drawn) [Imaging agent 10, 5-Fluoro-9-(2-[^18F]fluoro-ethyl)-2,3,4,9-tetrahydro-1H-carbazole-4-carboxylic acid diethylamide]: in series [1], the “Brain 2 min (% ID/g)” value was found to be 0.50 % ID/g, the “% Activity in Brain = Parent @ 60 min” value came out at 92.70% and the “OB 30 min (% ID/g)” value amounted to 0.51 % ID/g.

Turning to `CCN(CC)C(=O)C1CC(C)Cc2c1c1ccccc1n2CCF` (stereo not drawn) [Imaging agent 11, 9-(2-[^18F]-Fluoro-ethyl)-2-methyl-2,3,4,9-tetrahydro-1H-carbazole-4-carboxylic acid diethylamide], the inhibitory constant (Ki) at Wistar rat heart PBR was 2.12 nM.

In the case of `CCN(CC)C(=O)C1CC(C)Cc2c1c1ccccc1n2CC[18F]` (stereo not drawn) [Imaging agent 11, 9-(2-[^18F]-Fluoro-ethyl)-2-methyl-2,3,4,9-tetrahydro-1H-carbazole-4-carboxylic acid diethylamide], in series [1], the “Brain 2 min (% ID/g)” value was 0.51 % ID/g, the “% Activity in Brain = Parent @ 60 min” value was 90.37%, the “OB 30 min (% ID/g)” value is reported as 0.42 % ID/g and the “OB: Str 30 min” value is given as 3.50. The “Str 2: 30 min” value in series [1] was 3.33.
